Reference: patent US9944602B2, “Piperidinone herbicides” (E. I. DU PONT DE NEMOURS AND COMPANY, priority 2014, dated 2018)

How the values were obtained:
Format in all cases: in vivo
[1] = test system: rice (Oryza sativa); experiment: Test C flooded paddy test rice; settings: Table C, Flood, scale 0 to 100
Excerpt: (§1) Plant species in the flooded paddy test consisted of rice (Oryza sativa), sedge, umbrella (small-flower umbrella sedge, Cyperus difformis), ducksalad (Heteranthera limosa), and barnyardgrass (Echinochloa crus-galli) grown to the 2-leaf stage for testing. At time of treatment, test pots were flooded to 3 cm above the soil surface, treated by application of test compounds directly to the paddy water, and then maintained at that water depth for the duration of the test. Treated plants and controls were maintained in a greenhouse for 13 to 15 d, after which time all species were compared to controls and visually evaluated. Plant response ratings, summarized in Table C, are based on a scale of 0 to 100 where 0 is no effect and 100 is complete control. A dash (-) response means no test result.

[2] = test system: pigweed (Amaranthus retroflexus); experiment: Test A preemergence pigweed; settings: 0 to 100 scale, 0 no effect, 100 complete control
Outline: (§2)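 Plants were grown in a blend of loam soil and sand. For preemergence testing the soil was sprayed directly after seeding, while postemergence testing used seedlings 2–10 cm high at one to two leaves; all treatments were rated visually for injury (0–100) after ~10 d.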

[3] = test system: blackgrass (Alopecurus myosuroides); experiment: Test A postemergence blackgrass; settings: 0 to 100 scale, 0 is no effect, 100 is complete control
Outline: as §2

[4] = test system: rice (Oryza sativa); experiment: Test B flooded paddy test rice; settings: Table B, Flood
Outline: (§3)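 Test pots carrying 2-leaf-stage seedlings were flooded to 3 cm above the soil surface when treated. Compound went directly into the standing water. Plants stayed in the greenhouse at that depth for 13 to 15 d before visual comparison with controls.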

[5] = test system: wheat (Triticum aestivum); experiment: Test A postemergence wheat; settings: 0 to 100 scale, 0 is no effect, 100 is complete control
Outline: as §2

[6] = test system: barnyardgrass (Echinochloa crus-galli); experiment: Test B flooded paddy test barnyardgrass; settings: Table B, Flood
Outline: as §3

[7] = test system: ryegrass, Italian (Italian ryegrass, Lolium multiflorum); experiment: Test A postemergence ryegrass, Italian; settings: 0 to 100 scale, 0 is no effect, 100 is complete control
Outline: as §2

[8] = test system: pigweed (Amaranthus retroflexus); experiment: Test A postemergence pigweed; settings: 0 to 100 scale, 0 is no effect, 100 is complete control
Outline: as §2

[9] = test system: sedge, umbrella (small-flower umbrella sedge, Cyperus difformis); experiment: Test C flooded paddy test sedge, umbrella; settings: Table C, Flood, scale 0 to 100
Excerpt: as §1

[10] = test system: barnyardgrass (Echinochloa crus-galli); experiment: Test C flooded paddy test barnyardgrass; settings: Table C, Flood, scale 0 to 100
Excerpt: as §1

[11] = test system: barnyardgrass (Echinochloa crus-galli); experiment: Test A postemergence barnyardgrass; settings: 0 to 100 scale, 0 is no effect, 100 is complete control
Outline: as §2

[12] = test system: ducksalad (Heteranthera limosa); experiment: Test C flooded paddy test ducksalad; settings: Table C, Flood, scale 0 to 100
Excerpt: as §1

[13] = test system: kochia (Kochia scoparia); experiment: Test A postemergence kochia; settings: 0 to 100 scale, 0 is no effect, 100 is complete control
Outline: as §2

[14] = test system: foxtail, giant (giant foxtail, Setaria faberii); experiment: Test A preemergence foxtail, giant; settings: 0 to 100 scale, 0 no effect, 100 complete control
Outline: as §2

[15] = test system: ryegrass, Italian (Italian ryegrass, Lolium multiflorum); experiment: Test A preemergence ryegrass, Italian; settings: 0 to 100 scale, 0 no effect, 100 complete control
Outline: as §2

[16] = test system: corn (Zea mays); experiment: Test A postemergence corn; settings: 0 to 100 scale, 0 is no effect, 100 is complete control
Outline: as §2

[17] = test system: ducksalad (Heteranthera limosa); experiment: Test B flooded paddy test ducksalad; settings: Table B, Flood
Outline: as §3

[18] = test system: barnyardgrass (Echinochloa crus-galli); experiment: Test A preemergence barnyardgrass; settings: 0 to 100 scale
Outline: as §2

[19] = test system: ragweed (common ragweed, Ambrosia elatior); experiment: Test A preemergence ragweed; settings: 0 to 100 scale, 0 no effect, 100 complete control
Outline: as §2

[20] = test system: galium (catchweed bedstraw, Galium aparine); experiment: Test A postemergence galium; settings: 0 to 100 scale, 0 is no effect, 100 is complete control
Outline: as §2

[21] = test system: foxtail, giant (giant foxtail, Setaria faberii); experiment: Test A postemergence foxtail, giant; settings: 0 to 100 scale, 0 is no effect, 100 is complete control
Outline: as §2

[22] = test system: sedge, umbrella (small-flower umbrella sedge, Cyperus difformis); experiment: Test B flooded paddy test sedge, umbrella; settings: Table B, Flood
Outline: as §3

[23] = test system: kochia (Kochia scoparia); experiment: Test A preemergence kochia; settings: 0 to 100 scale, 0 no effect, 100 complete control
Outline: as §2

[24] = test system: ragweed (common ragweed, Ambrosia elatior); experiment: Test A postemergence ragweed; settings: 0 to 100 scale, 0 is no effect, 100 is complete control
Outline: as §2

O=C1NCCC(c2cccc(C(F)(F)F)c2)C1C(=O)Nc1ccc(F)c(F)c1F (racemic) [Compound 28]
Plant response rating ([1]; 31 g ai/ha): 0
Plant response rating ([1]; 62 g ai/ha): 0
Plant response rating ([1]; 125 g ai/ha): 0
Plant response rating ([1]; 250 g ai/ha): 0
Pigweed plant response rating ([2]; 125 g ai/ha): 0
Pigweed plant response rating ([2]; 500 g ai/ha): 20
Plant response rating, Blackgrass ([3]; 125 g ai/ha): 0
Plant response rating, Blackgrass ([3]; 500 g ai/ha): 20
Plant response rating ([4]; 500 g ai/ha, scale 0 to 100): 15
Plant response rating, Wheat ([5]; 125 g ai/ha): 0
Plant response rating, Wheat ([5]; 500 g ai/ha): 20
Plant response rating ([6]; 500 g ai/ha, scale 0 to 100): 100
Plant response rating, Ryegrass, Italian ([7]; 125 g ai/ha): 0
Plant response rating, Ryegrass, Italian ([7]; 500 g ai/ha): 0
Plant response rating, Pigweed ([8]; 125 g ai/ha): 0
Plant response rating, Pigweed ([8]; 500 g ai/ha): 0
Plant response rating ([9]; 31 g ai/ha): 0
Plant response rating ([9]; 62 g ai/ha): 0
Plant response rating ([9]; 125 g ai/ha): 0
Plant response rating ([9]; 250 g ai/ha): 0
Plant response rating ([10]; 31 g ai/ha): 60
Plant response rating ([10]; 62 g ai/ha): 65
Plant response rating ([10]; 125 g ai/ha): 70
Plant response rating ([10]; 250 g ai/ha): 75
Plant response rating, Barnyardgrass ([11]; 125 g ai/ha): 60
Plant response rating, Barnyardgrass ([11]; 500 g ai/ha): 80
Plant response rating ([12]; 31 g ai/ha): 45
Plant response rating ([12]; 62 g ai/ha): 50
Plant response rating ([12]; 125 g ai/ha): 60
Plant response rating ([12]; 250 g ai/ha): 70
Plant response rating, Kochia ([13]; 125 g ai/ha): 0
Plant response rating, Kochia ([13]; 500 g ai/ha): 0
Foxtail, Giant plant response rating ([14]; 125 g ai/ha): 90
Foxtail, Giant plant response rating ([14]; 500 g ai/ha): 90
Ryegrass, Italian plant response rating ([15]; 125 g ai/ha): 20
Ryegrass, Italian plant response rating ([15]; 500 g ai/ha): 40
Plant response rating, Corn ([16]; 125 g ai/ha): 30
Plant response rating, Corn ([16]; 500 g ai/ha): 60
Plant response rating ([17]; 500 g ai/ha, scale 0 to 100): 85
Barnyardgrass plant response rating ([18]; 125 g ai/ha, 0 no effect, 100 complete control): 90
Barnyardgrass plant response rating ([18]; 500 g ai/ha, 0 no effect, 100 complete control): 90
Ragweed plant response rating ([19]; 125 g ai/ha): 0
Ragweed plant response rating ([19]; 500 g ai/ha): 0
Plant response rating, Galium ([20]; 125 g ai/ha): 0
Plant response rating, Galium ([20]; 500 g ai/ha): 0
Plant response rating, Foxtail, Giant ([21]; 125 g ai/ha): 70
Plant response rating, Foxtail, Giant ([21]; 500 g ai/ha): 90
Plant response rating ([22]; 500 g ai/ha, scale 0 to 100): 0
Kochia plant response rating ([23]; 125 g ai/ha): 20
Kochia plant response rating ([23]; 500 g ai/ha): 20
Plant response rating, Ragweed ([24]; 125 g ai/ha): 0
Plant response rating, Ragweed ([24]; 500 g ai/ha): 0

O=C1NCCC(c2cccc(C(F)(F)F)c2)C1C(=O)Nc1cccc(F)c1F (stereo not shown) [Compound 9, N-(2,3-difluorophenyl)-2-oxo-4-[3-(trifluoromethyl)phenyl]-3-piperidinecarboxamide]
Plant response rating ([1]; 1000 g ai/ha): 10
pest or weed control at 125 g/ha ([2]; Amaranthus retroflexus, pre-emergence, 240 h, 125 g ai/ha, read-out: Pigweed plant response rating): 0%
pest or weed control at 500 g/ha ([2]; Amaranthus retroflexus, pre-emergence, 240 h, 500 g ai/ha, read-out: Pigweed plant response rating): 0%
plant injury at 250 g/ha ([4]; Oryza sativa, 250 g ai/ha, scale 0 to 100, read-out: Plant response rating): 0%
plant injury at 125 g/ha ([5]; Triticum aestivum, post-emergence, 240 h, 125 g ai/ha, read-out: Plant response rating, Wheat): 20%
plant injury at 500 g/ha ([5]; Triticum aestivum, post-emergence, 240 h, 500 g ai/ha, read-out: Plant response rating, Wheat): 40%
pest or weed control at 250 g/ha ([6]; Echinochloa crus-galli, 250 g ai/ha, scale 0 to 100, read-out: Plant response rating): 75%
pest or weed control at 125 g/ha ([8]; Amaranthus retroflexus, post-emergence, 240 h, 125 g ai/ha, read-out: Plant response rating, Pigweed): 0%
pest or weed control at 500 g/ha ([8]; Amaranthus retroflexus, post-emergence, 240 h, 500 g ai/ha, read-out: Plant response rating, Pigweed): 0%
Plant response rating ([9]; 1000 g ai/ha): 0
Plant response rating ([10]; 1000 g ai/ha): 80
pest or weed control at 125 g/ha ([11]; Echinochloa crus-galli, post-emergence, 240 h, 125 g ai/ha, read-out: Plant response rating, Barnyardgrass): 80%
pest or weed control at 500 g/ha ([11]; Echinochloa crus-galli, post-emergence, 240 h, 500 g ai/ha, read-out: Plant response rating, Barnyardgrass): 90%
Plant response rating ([12]; 1000 g ai/ha): 98
pest or weed control at 125 g/ha ([14]; Setaria faberi, pre-emergence, 240 h, 125 g ai/ha, read-out: Foxtail, Giant plant response rating): 90%
pest or weed control at 500 g/ha ([14]; Setaria faberi, pre-emergence, 240 h, 500 g ai/ha, read-out: Foxtail, Giant plant response rating): 90%
Corn plant response rating (crop injury, 0 = no effect, 100 = complete kill) at 125 g/ha ([16]; Zea mays, post-emergence, 240 h, 125 g ai/ha): 40%
Corn plant response rating (crop injury, 0 = no effect, 100 = complete kill) at 500 g/ha ([16]; Zea mays, post-emergence, 240 h, 500 g ai/ha): 80%
pest or weed control at 250 g/ha ([17]; Heteranthera limosa, 250 g ai/ha, scale 0 to 100, read-out: Plant response rating): 90%
Plant response rating, Barnyardgrass ([18]; 500 g ai/ha, 0 is no effect, 100 is complete control): 90
pest or weed control at 125 g/ha ([18]; Echinochloa crus-galli, pre-emergence, 240 h, 125 g ai/ha, 0 no effect, 100 complete control, read-out: Barnyardgrass plant response rating): 90%
pest or weed control at 125 g/ha ([21]; Setaria faberi, post-emergence, 240 h, 125 g ai/ha, read-out: Plant response rating, Foxtail, Giant): 80%
pest or weed control at 500 g/ha ([21]; Setaria faberi, post-emergence, 240 h, 500 g ai/ha, read-out: Plant response rating, Foxtail, Giant): 90%
pest or weed control at 250 g/ha ([22]; Cyperus difformis, 250 g ai/ha, scale 0 to 100, read-out: Plant response rating): 0%
